Measurements published in patent US10473647B1, “Peptides for use in treatment and diagnosis of type 1 diabetes” (ImmusanT, Inc., priority 2014, dated 2019).

What follows are sequences tested on whole blood from subjects with T1D and Celiac disease (assay: Whole blood cytokine release assay, IP-10 (MAGPIX), Example 1). Conditions: individual 17mer 20 μg/mL; four subjects; blood 6 days after commencing oral gluten challenge.
Type: cell-based, human
KYKIWMHVDAAWGGGLL [SEQ ID NO: 60] was tested, and the “subjects with elevated whole blood IP-10 release (2-fold greater than medium alone)” value (“subjects … (2-fold greater than medium alone)” for short) was “Three subjects”.
With NVCFWYIPPSLRTLEDN [SEQ ID NO: 10] the “subjects … (2-fold greater than medium alone)” value was “all four subjects”.
In the case of NMFTYEIAPVFVLLEYV [SEQ ID NO: 9], the “subjects … (2-fold greater than medium alone)” value is reported as “all four subjects”.
SPLQAELLPPLLEHLLL [SEQ ID NO: 71] was tested, and the “subjects … (2-fold greater than medium alone)” value was “Two subjects”.
CTVIVMLTPLVEDGVKQ [SEQ ID NO: 66] was tested, and the “subjects … (2-fold greater than medium alone)” value was “Three subjects”.
With FNQLSTGLDMVGLAADW [SEQ ID NO: 11] the “subjects … (2-fold greater than medium alone)” value was “all four subjects”.
With MNILLEYVVKSFDRSTK [SEQ ID NO: 64] the “subjects … (2-fold greater than medium alone)” value was “two subjects”.
In the case of AFLQDVMNILLEYVVKS [SEQ ID NO: 63], the “subjects … (2-fold greater than medium alone)” value is reported as “two subjects”.
For RPTLAFLQDVMNILLQY [SEQ ID NO: 59], the “subjects … (2-fold greater than medium alone)” value was “Three subjects”.
For AHSTSPMRSVLLTLVAL [SEQ ID NO: 70], the “subjects … (2-fold greater than medium alone)” value was “Two subjects”.
